Measurements taken from patent US5760036A, “Aminediol protease inhibitors” (E. R. Squibb & Sons, Inc., priority 1995, dated 1998).
Counter-ions that a name gives are not always drawn. Like-named read-outs stand apart in the source and are kept apart here.

How the values were obtained:
HIV protease = target: T1, HIV protease (Human immunodeficiency virus type 1 group M subtype B, UniProt P04585); assay: HIV Protease Assay; format: biochemical; settings: 4% DMSO, 450 μM substrate, pH 5.5, 30 minutes at 37° C., RP-HPLC; for inhibition at 10 µM: pH 5.5, 10 μM inhibitor, read-out: HIV Protease % Inhibition at 10 μM; for HIV Protease % Inhibition at 10 μM: 10 μM inhibitor
T1 construct: and purified protease
In short: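 Purified protease cleaved 450 μM octapeptide substrate in 50 mM sodium acetate pH 5.5 with 100 μg/ml BSA for 30 minutes at 37° C; product analyzed by reverse-phase HPLC at UV220 after H3PO4 quench. Inhibitors tested at final 10 μM with 4% DMSO.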

[1] = test system: RF strain of HIV (CEM-SS cells); assay: Cell Culture Anti-HIV Activity (cell viability, formazan); format: cell-based; settings: CEM-SS cells, RF strain of HIV, multiplicity of infection 0.04, 6 days at 37° C., 450 nm, read-out: HIV (CEM Cells) IC50
In short: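 CEM-SS cells (5000/well) infected with HIV RF at MOI 0.04, exposed to half-log serial compound dilutions, incubated 6 days at 37° C. Viability read by tetrazolium reduction to formazan, absorbance 450 nm. IC50 is the concentration raising formazan in infected cells to 50% of uninfected, drug-free cells.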

[2] = Human immunodeficiency virus 1, CEM-SS, 144 h

| SMILES | inhibition at 10 µM (HIV protease) [%] | IC50 [1, 2] [nM] | HIV Protease % Inhibition at 10 μM (HIV protease) [%] | IC50 [1] [nM] |
| --- | --- | --- | --- | --- |
| CC[C@H](C)[C@H](NC(=O)OCc1ccccc1)[C@H](O)CNC[C@@H](O)[C@H](Cc1ccccc1)NC(=O)OC(C)(C)C [Compound 16, [2S-[2R*,[S*(2S*,3R*)]]-[1-Hydroxy-3-[[(1,1-dimethylethoxy)carbonyl]-amino]-2-hydroxy-4-phenylbutyl]amino]ethyl-2-methylbutyl]carbamic acid, phenylmethyl ester] | 83 | ≥ 2300 | – | – |
| CCC(=O)N[C@H](C(=O)N[C@@H](Cc1ccccc1)[C@H](O)CNC[C@@H](O)[C@H](Cc1ccccc1)NC(=O)OC(C)(C)C)C(C)C (relative stereo) [Compound 248, [1R*,2S*,(2S*,3R*)]-N-[3-[[3-[[(1,1-Dimethylethoxy)carbonyl]amino]-2-hydroxy-4-phenylbutyl]amino]-2-hydroxy-1-(phenylmethyl)propyl]-N^2-(1-oxopropyl)-L-valinamide] | 99 | 230 | – | – |
| CC(C)OC(=O)N[C@@H](Cc1ccccc1)[C@H](O)CNC[C@@H](O)[C@H](Cc1ccccc1)NC(=O)OC(C)C [Compound 123, [R-(R*,S*)]-[Iminobis[2-hydroxy-1-(phenylmethyl)-3.1-propandiyl]biscarbamic acid, bis(1-methylethyl)ester] | 65 | 1000 | – | – |
| CC(C)(C)OC(=O)N[C@@H](Cc1ccccc1)[C@H](O)CNC[C@@H](O)[C@H](Cc1ccccc1)NC(=O)[C@@H](NC(=O)OCc1ncc(-c2ccccc2)o1)C(C)(C)C [Compound 347, [S-(1R*,2S*(2S*,3R*)]]-[2,2-Dimethyl-1-[[[3-[[3-[[1,1-dimethylethoxy)-carbonyl]amino]-2-hydroxy-4-phenylbutyl]amino]-2-hydroxy-1-(phenylmethyl)propyl]amino]carbonyl]-propyl]carbamic acid, (5-phenyl-2-oxazolyl)methyl ester] | 99 | 50 | – | – |
| CC(C)(C)OC(=O)N[C@@H](Cc1ccccc1)[C@H](O)CNC[C@@H](O)[C@H](Cc1ccccc1)NC(=O)c1ccc2ccccc2c1 [Compound 64, [1S-[1R*,2S*(2S*,3R*)]]-[2-Hydroxy-3-[[2-hydrox-3-[(2-naphthalenyl-carbonyl)amino]-4-phenylbutyl]amino]-1-(phenylmethyl)propyl]carbamic acid, 1,1-dimethylethyl ester] | 72 | > 5000 | – | – |
| CC(C)[C@H](NC(=O)[C@@H](C)O)C(=O)N[C@@H](Cc1ccccc1)[C@H](O)CNC[C@@H](O)[C@H](Cc1ccccc1)NC(=O)OC(C)(C)C [Compound 221, [1S-[[1R*,2S*(2S*,3R*)],N^2-(S*) ]]-N-[3-[[3-[[(1,1-Dimethylethoxy)carbonyl]amino]-2-hydroxy-4-phenylbutyl]amino]-2-hydroxy-1-(phenylmethyl)propyl]-N^2-(2-hydroxy-1-oxopropyl)-L-valinamide] | 96 | 1100 | – | – |
| CC(C)C[C@H](N)C(=O)N[C@H](C(=O)N[C@@H](Cc1ccccc1)[C@H](O)CNC[C@@H](O)[C@H](Cc1ccccc1)NC(=O)OC(C)(C)C)C(C)C [Compound 98, [S-[1R*,2S*(2S*,3R*)]-N-[3-[[3-[[(1,1-Dimethylethoxy)carbonyl]amino]-2-hydroxy-4-phenylbutyl]amino]-2-hydroxy-1(phenylmethyl)propyl]-N^2-(L-leucyl)-L-valinamide, fumarate salt] | 100 | 1300 | – | – |
| CC(C)(C)OC(=O)N[C@@H](Cc1ccccc1)[C@H](O)CNC[C@@H](O)[C@H](Cc1ccccc1)NC(=O)C(C)(O)C(F)(F)F (single isomer, unassigned; isomer a) [Compound 293, [1S-[1R*,2S*(2S*,3R*)]]-[2-Hydroxy-3-[2-hydroxy-1-oxo-2-(trifluoromethyl)-propyl]amino]-4-phenylbutyl]amino]-1-(phenylmethyl)propyl]carbamic acid, 1,1-dimethylethylester (isomer A)] | 99 | 30 | – | – |
| CC(C)(C)OC(=O)N[C@@H](Cc1ccccc1)[C@H](O)CNC[C@@H](O)[C@H](Cc1ccccc1)NC(=O)[C@@H](NC(=O)OCc1cc2cccnc2o1)C(C)(C)C [Compound 352, [S-[1R*,2S*(2S*,3R*)]]-[2,2-Dimethyl-1-[[[3-[[3-[[(1,1-dimethylethoxy)carbonyl]amino]-2-hydroxy-4-phenylbutyl]amino]-2-hydroxy-1-(phenylmethyl)-propyl]amino]carbonyl]propyl]carbamic acid, (2-furo[2,3-b]pyridinyl)methyl ester] | 99 | 100 | – | – |
| CC(C)(C)OC(=O)N[C@@H](Cc1ccccc1)[C@H](O)CNC[C@@H](O)[C@H](Cc1cccc(OCc2ccccc2)c1)NC(=O)OC(C)(C)C [Compound 28, [1S-[1R*,2S*(2S*,3R*)]]-[3-[[3-[[(1,1-Dimethylethoxy)-carbonyl]amino]-2-hydroxy-4-phenylbutyl]amino]-2-hydroxy-1-[[3-(phenylmethoxy)phenyl]methyl]propyl]carbamic acid, 1,1-dimethylethyl ester] | 100 | 90 | – | – |
| CC(C)[C@H](NC(=O)OCc1ccccn1)C(=O)N[C@@H](Cc1ccccc1)[C@H](O)CNC[C@@H](O)[C@H](Cc1ccccc1)NC(=O)OC(C)(C)C [Compound 70, [S-[1R*,2S*(2S*,3R*)]]-N-[3-[[3-[[(1,1-Dimethylethoxy)carbonyl]amino]-2-hydroxy-4-phenylbutyl]amino]-2-hydroxy-1-(phenylmethyl)-propyl]-N^2-(2-pyridinylmethoxy)carbonyl]-L-valinamide] | 100 | 500 | – | – |
| CC(C)(C)OC(=O)N[C@@H](Cc1ccccc1)[C@H](O)CNC[C@@H](O)[C@H](Cc1ccccc1O)NC(=O)OC(C)(C)C [Compound 350, [1S-[1R*,2S*(2S*,3R*)]]-[3-[[3-[[(1,1-Dimethylethoxy)carbonyl]amino]-2-hydroxy-4-(2-hydroxyphenyl)butyl]amino]-2-hydroxy-1-(phenylmethyl)propyl]carbamic acid, 1,1-dimethylethyl ester] | 98 | 500 | – | – |
| CC(C)(C)OC(=O)N[C@@H](Cc1ccccc1)[C@H](O)CNC[C@@H](O)[C@H](Cc1ccccc1)NC(=O)C(=O)C(C)(C)C [Compound 213, [1S-[1R*,2S*(2S*,3R*)]]-[3-[[3-[(3,3-Dimethyl-1,2-dioxobutyl)amino]-2-hydroxy-4-phenylbutyl]amino]-2-hydroxy-1-(phenylmethyl)propyl]carbamic acid, 1,1-dimethylethyl ester] | 98 | 170 | – | – |
| CC[C@H](C)[C@H](NC(=O)OC(C)(C)C)[C@H](O)CNC[C@@H](O)[C@@H](NC(=O)OC(C)(C)C)[C@@H](C)CC [Compound 13, [R-(R*,S*)]-[Iminobis[2-hydroxy-1-(1-methylpropyl)-3,1-proyanediyl]]biscarbamic acid, 1,1-dimethylethyl ester] | 45 | 5300 | – | – |
| CC(C)(C)OC(=O)N[C@@H](Cc1ccccc1)[C@H](O)CNC[C@@H](O)[C@H](Cc1ccccc1)NC(=O)OC1(C)CCOCC1 [Compound 166, [1S-(1R*,2S*)]-[Iminobis[2-hydroxy-1-(phenylmethyl)-3,1-propanediyl]]bis[carbamic acid], 1,1-dimethylethyl-4-methyltetrahydropyran-4-yl-ester] | 89 | 1700 | – | – |
| CC(C)(C)OC(=O)N[C@@H](Cc1ccccc1)[C@H](O)CNC[C@@H](O)[C@H](Cc1ccccc1)NC(=O)[C@@H](NC(=O)OCc1nc2ccccc2s1)C(C)(C)C [Compound 292, [S-[1R*,2S*(2S*,3R*)]]-[2,2-Dimethyl-1-[[[3-[[3-[[(1,1-dimethylethoxy)carbonyl]amino]-2-hydroxy-4-phenylbutyl]amino]-2-hydroxy-1-(phenylmethyl)propyl]amino]carbonyl]propyl]carbamic acid, (2-benzothiazolyl)methyl ester] | 99 | 170 | – | – |
| CC1(C)CCCC1(O)C(=O)N[C@@H](Cc1ccccc1)[C@H](O)CNC[C@@H](O)[C@H](Cc1ccccc1)NC(=O)C1(O)CCCC1(C)C (single isomer, unassigned; isomer b) [Compound 337] | – | – | 99 | 290 |
| C[C@H](NC(=O)OCc1ccccc1)C(=O)N[C@@H](Cc1ccccc1)[C@H](O)CNC[C@@H](O)[C@H](Cc1ccccc1)NC(=O)OC(C)(C)C (relative stereo) [Compound 243, [1R*,2S*(2S*,3R*)]-N-[3-[[3-[[(1,1-Dimethylethoxy)carbonyl]amino]-2-hydroxy-4-phenylbutyl]-2-hydroxy-1-(phenylmethyl)propyl]-N^2-[(phenylmethoxy)carbonyl]-L-alaninamide] | 99 | 80 | – | – |
| CC(C)(C)OC(=O)N[C@@H](Cc1ccccc1)[C@H](O)CNC[C@@H](O)[C@H](Cc1ccccc1)NC(=O)C(NC(=O)OCc1ccccc1)C(C)(C)CO (single isomer, unassigned; isomer b) [Compound 309, [1S-[1R*,2S*(2S*, 3R*)]]-[1-[[[3-[[(1,1-Dimethylethoxy)carbonyl]amino]-2-hydroxy-4-phenylbutyl]amino]-2-hydroxy-1-(phenylmethyl)-propyl]amino]carbonyl]-2-(hydroxymethyl)-2-methylpropyl]carbamic acid, phenylmethyl ester. isomer B] | – | – | 100 | 1800 |
